# Values joined by “and” are separate entries in the source; they are usually repeats but may differ in a detail not shown here. Equal entries are not always repeated. Inconclusive results and toxic doses are left out.
# Tested on: BDF1 mice, P388 leukemia ip, median survival T/C
# Experiment: NCI In Vivo Anticancer Drug Screen. Data for tumor model P388 Leukemia (intraperitoneal) in B6D2F1 (BDF1) mice
# Details: endpoint: median survival time, higher = longer survival
# Method in brief: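 Mice carrying the transplantable tumour receive compound or vehicle. Survival is followed in each arm, and the treated measure is divided by the vehicle measure.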
# [1] = dose: 50.0 mg/kg/injection, schedule: Q01DX009 (ip), vehicle: saline with Tween-80
# [2] = dose: 100.0 mg/kg/injection, schedule: Q01DX009 (ip), vehicle: saline with Tween-80
# [3] = dose: 200.0 mg/kg/injection, schedule: Q01DX009 (ip), vehicle: saline with Tween-80
# [4] = dose: 4.0 mg/kg/injection, schedule: Q01DX009 (ip), vehicle: saline with Tween-80
# [5] = dose: 4.0 mg/kg/injection, schedule: Q04DX003 (ip), vehicle: saline with Tween-80
# [6] = dose: 100.0 mg/kg/injection, schedule: Q04DX003 (ip), vehicle: saline with Tween-80
# [7] = dose: 200.0 mg/kg/injection, schedule: Q04DX003 (ip), vehicle: saline with Tween-80
# [8] = dose: 300.0 mg/kg/injection, schedule: Q01DX009 (ip), vehicle: saline with Tween-80
# [9] = dose: 400.0 mg/kg/injection, schedule: Q01DX009 (ip), vehicle: saline with Tween-80
# [10] = dose: 400.0 mg/kg/injection, schedule: Q04DX003 (ip), vehicle: saline with Tween-80
# [11] = dose: 100.0 mg/kg/injection, schedule: Q01DX009 (ip), vehicle: other
# [12] = dose: 50.0 mg/kg/injection, schedule: Q01DX009 (ip), vehicle: saline
# [13] = dose: 100.0 mg/kg/injection, schedule: Q04DX003 (ip), vehicle: Klucel (hydroxypropylcellulose) (HPC)
# [14] = dose: 200.0 mg/kg/injection, schedule: Q04DX003 (ip), vehicle: Klucel (hydroxypropylcellulose) (HPC)
# [15] = dose: 400.0 mg/kg/injection, schedule: Q04DX003 (ip), vehicle: Klucel (hydroxypropylcellulose) (HPC)
structure (smiles),measurement,setting,value
CCN(CC)CC(=O)Nc1ccc(Cl)cc1Cc1ccccc1,T/C,[1],110 % of control
same,T/C,[2],106 % of control
same,T/C,[3],105 % of control
CC(=O)Nc1ccc2[nH]c(C)cc(=O)c2c1,T/C,"dose: 25.0 mg/kg/injection, schedule: Q01DX009 (ip), vehicle: water",94 % of control
same,T/C,"dose: 50.0 mg/kg/injection, schedule: Q01DX009 (ip), vehicle: water",94 % of control
same,T/C,"dose: 50.0 mg/kg/injection, schedule: Q04DX003 (ip), vehicle: water",101 % of control
same,T/C,"dose: 100.0 mg/kg/injection, schedule: Q01DX009 (ip), vehicle: water",92 % of control
same,T/C,"dose: 100.0 mg/kg/injection, schedule: Q04DX003 (ip), vehicle: water",106 % of control
same,T/C,"dose: 200.0 mg/kg/injection, schedule: Q01DX009 (ip), vehicle: water",91 % of control
same,T/C,"dose: 200.0 mg/kg/injection, schedule: Q04DX003 (ip), vehicle: water",95 % of control
same,T/C,"dose: 400.0 mg/kg/injection, schedule: Q01DX009 (ip), vehicle: water",92 % of control
same,T/C,"dose: 400.0 mg/kg/injection, schedule: Q04DX003 (ip), vehicle: water",113 % of control
[Cr+6].[NH2-].[NH2-].[NH2-].[NH2-].[NH2-].[NH2-],T/C,"dose: 4.1 mg/kg/injection, schedule: Q04DX003 (ip), vehicle: saline",116 % of control
same,T/C,"dose: 5.4 mg/kg/injection, schedule: Q04DX003 (ip), vehicle: saline",109 % of control
same,T/C,"dose: 6.25 mg/kg/injection, schedule: Q01DX009 (ip), vehicle: saline",120 % of control
same,T/C,"dose: 8.2 mg/kg/injection, schedule: Q01DX009 (ip), vehicle: saline",122 % of control
same,T/C,"dose: 8.2 mg/kg/injection, schedule: Q04DX003 (ip), vehicle: saline",109 % of control
same,T/C,"dose: 25.0 mg/kg/injection, schedule: Q01DX001 (ip), vehicle: saline",112 % of control
same,T/C,"dose: 50.0 mg/kg/injection, schedule: Q01DX001 (ip), vehicle: saline",112 % of control
O=C1c2c(Cl)c(Cl)c(Cl)c(Cl)c2C(=O)N1c1ccccc1-c1ccccc1,T/C,"dose: 175.0 mg/kg/injection, schedule: Q01DX009 (ip), vehicle: saline with Tween-80",89 % of control
same,T/C,"dose: 350.0 mg/kg/injection, schedule: Q01DX009 (ip), vehicle: saline with Tween-80",94 % of control
COn1nnc2c([N+](=O)[O-])cccc21,T/C,[1],109 % of control
CCCCOP(=S)(N1CC1)N1CC1,T/C,"dose: 1.78 mg/kg/injection, schedule: Q01DX009 (ip), vehicle: saline with Tween-80",113 % of control
same,T/C,"dose: 2.66 mg/kg/injection, schedule: Q01DX009 (ip), vehicle: saline with Tween-80",150 % of control
same,T/C,"dose: 2.66 mg/kg/injection, schedule: Q04DX003 (ip), vehicle: saline with Tween-80",99 % of control
same,T/C,[4],186 % of control
same,T/C,[5],95 % of control
same,T/C,"dose: 6.0 mg/kg/injection, schedule: Q01DX009 (ip), vehicle: saline with Tween-80",216 % of control
same,T/C,"dose: 6.6 mg/kg/injection, schedule: Q01DX009 (ip), vehicle: saline with Tween-80",194 % of control
same,T/C,"dose: 10.0 mg/kg/injection, schedule: Q01DX009 (ip), vehicle: saline with Tween-80",211 % of control
same,T/C,"dose: 11.0 mg/kg/injection, schedule: Q01DX009 (ip), vehicle: saline with Tween-80",212 % of control
same,T/C,"dose: 15.0 mg/kg/injection, schedule: Q01DX009 (ip), vehicle: saline with Tween-80",108 % of control
same,T/C,"dose: 25.0 mg/kg/injection, schedule: Q01DX009 (ip), vehicle: saline with Tween-80",111 % of control
same,T/C,"dose: 37.5 mg/kg/injection, schedule: Q01DX009 (ip), vehicle: saline with Tween-80",95 % of control
same,T/C,[1],96 % of control
same,T/C,[6],263 % of control
same,T/C,[7],104 % of control
[Cl][Hg][Cl].c1cnccn1,T/C,"dose: 0.25 mg/kg/injection, schedule: Q01DX009 (ip), vehicle: saline with Tween-80",104 % of control
same,T/C,"dose: 0.5 mg/kg/injection, schedule: Q01DX009 (ip), vehicle: saline with Tween-80",96 % of control and 109 % of control
same,T/C,"dose: 2.0 mg/kg/injection, schedule: Q04DX003 (ip), vehicle: saline with Tween-80",95 % of control and 100 % of control
same,T/C,[4],96 % of control
same,T/C,[5],95 % of control and 96 % of control
same,T/C,"dose: 5.0 mg/kg/injection, schedule: Q04DX003 (ip), vehicle: saline with Tween-80",116 % of control
same,T/C,"dose: 8.0 mg/kg/injection, schedule: Q04DX003 (ip), vehicle: saline with Tween-80",111 % of control and 119 % of control
COc1ccc(Cc2cc3cc(OC)c(OC)cc3cn2)cc1OC,T/C,[6],110 % of control
same,T/C,[3],103 % of control
same,T/C,[7],112 % of control
same,T/C,[8],114 % of control
same,T/C,[9],103 % of control
same,T/C,[10],116 % of control
same,T/C,"dose: 500.0 mg/kg/injection, schedule: Q01DX009 (ip), vehicle: saline with Tween-80",103 % of control
O=[N+]([O-])c1ccc(N2CCN(c3ccccc3)CC2)c2c1no[n+]2[O-],T/C,"dose: 75.0 mg/kg/injection, schedule: Q04DX003 (ip), vehicle: saline with Tween-80",108 % of control
same,T/C,"dose: 150.0 mg/kg/injection, schedule: Q04DX003 (ip), vehicle: saline with Tween-80",111 % of control
COc1cc(O)c2c(c1O)C(=O)c1cc(C)ncc1C2=O,T/C,[2],91 % of control
same,T/C,[3],91 % of control
same,T/C,[9],91 % of control
O=C1c2ccccc2C(=O)N1CC#CCN1C(=O)c2ccccc2C1=O,T/C,"dose: 75.0 mg/kg/injection, schedule: Q01DX009 (ip), vehicle: saline with Tween-80",115 % of control
same,T/C,"dose: 150.0 mg/kg/injection, schedule: Q01DX009 (ip), vehicle: saline with Tween-80",90 % of control
same,T/C,[8],97 % of control
CC1(C)C2CCC(CN)C1C2 (centres undefined),T/C,[11],106 % of control
NNC(=O)[C@H]1CC[C@H]1C(=O)NN,T/C,"dose: 25.0 mg/kg/injection, schedule: Q01DX009 (ip), vehicle: saline",95 % of control
same,T/C,[12],109 % of control
C/C(=N\Nc1ccc([N+](=O)[O-])cc1[N+](=O)[O-])C(F)(F)F,T/C,"dose: 44.0 mg/kg/injection, schedule: Q01DX009 (ip), vehicle: other",95 % of control
same,T/C,"dose: 66.0 mg/kg/injection, schedule: Q01DX009 (ip), vehicle: other",100 % of control
same,T/C,[11],100 % of control
same,T/C,[13],100 % of control
same,T/C,"dose: 150.0 mg/kg/injection, schedule: Q01DX009 (ip), vehicle: other",95 % of control
same,T/C,[3],115 % of control
same,T/C,[14],100 % of control
same,T/C,[9],100 % of control
same,T/C,[15],100 % of control
Cc1ccc(S(=O)(=O)N=S2CCCC2)cc1,T/C,[13],100 % of control
same,T/C,[14],95 % of control
same,T/C,[15],100 % of control
O=C(OC1CC2CCCC21)c1cc([N+](=O)[O-])cc([N+](=O)[O-])c1 (centres undefined),T/C,"dose: 100.0 mg/kg/injection, schedule: Q01DX001 (ip), vehicle: saline with Tween-80",94 % of control
same,T/C,"dose: 200.0 mg/kg/injection, schedule: Q01DX001 (ip), vehicle: saline with Tween-80",97 % of control
same,T/C,"dose: 400.0 mg/kg/injection, schedule: Q01DX001 (ip), vehicle: saline with Tween-80",99 % of control
O=C(O)CNC(CSCc1ccccc1)CSCc1ccccc1,T/C,"dose: 25.0 mg/kg/injection, schedule: Q04DX003 (ip), vehicle: saline with Tween-80",101 % of control
same,T/C,[12],93 % of control
same,T/C,"dose: 50.0 mg/kg/injection, schedule: Q04DX003 (ip), vehicle: saline with Tween-80",106 % of control
same,T/C,"dose: 100.0 mg/kg/injection, schedule: Q01DX009 (ip), vehicle: saline",112 % of control
same,T/C,[6],98 % of control
same,T/C,"dose: 200.0 mg/kg/injection, schedule: Q01DX009 (ip), vehicle: saline",111 % of control
same,T/C,[7],97 % of control
same,T/C,"dose: 400.0 mg/kg/injection, schedule: Q01DX009 (ip), vehicle: saline",116 % of control
same,T/C,[10],97 % of control
Cc1ccc(S(=O)(=O)OCCC2CCCCC2COS(=O)(=O)c2ccc(C)cc2)cc1 (centres undefined),T/C,"dose: 100.0 mg/kg/injection, schedule: Q01DX009 (ip), vehicle: Klucel (hydroxypropylcellulose) (HPC)",105 % of control
same,T/C,"dose: 200.0 mg/kg/injection, schedule: Q01DX009 (ip), vehicle: Klucel (hydroxypropylcellulose) (HPC)",100 % of control
same,T/C,"dose: 400.0 mg/kg/injection, schedule: Q01DX009 (ip), vehicle: Klucel (hydroxypropylcellulose) (HPC)",110 % of control

# From PubChem BioAssay AID328 (DTP/NCI, 2004)
